Assay [1] deals with Staphylococcus aureus. Kind of assay: Inhibition of biofilm formation in Staphylococcus aureus ATCC 29213 at 1.5 ug/ml after 24 hrs by MTT assay. It counts as functional. To be noted: ATCC 29213, 24 h. In general terms: Tetrazolium assays rely on reduction of a dye to a coloured formazan, in cell work by metabolically active cells.
In assay [2] the test system is Staphylococcus epidermidis. Kind of assay: Inhibition of biofilm formation in Staphylococcus epidermidis DSM 3269 at 1.5 ug/ml after 24 hrs by MTT assay. The settings on record: DSM 3269, 24 h. It counts as functional.
In assay [3] the test system is Staphylococcus epidermidis. Description: Inhibition of biofilm formation in Staphylococcus epidermidis RP62A at 1.5 ug/ml after 24 hrs by MTT assay. Format: functional.
Assay [4] has as its system Staphylococcus aureus. Description: Inhibition of biofilm formation in Staphylococcus aureus ATCC 25923 at 1.5 ug/ml after 24 hrs by MTT assay. Format: functional. The settings on record: ATCC 25923, 24 h.
For assay [5], the system named is Staphylococcus aureus. Description: Inhibition of biofilm formation in Staphylococcus aureus ATCC 702 at 1.5 ug/ml after 24 hrs by MTT assay. It counts as functional. To be noted: ATCC 702, 24 h.
For assay [6], the system named is Staphylococcus aureus. Description: Inhibition of biofilm formation in Staphylococcus aureus ATCC 657 at 1.5 ug/ml after 24 hrs by MTT assay. The settings on record: ATCC 657, 24 h. Format: functional.
For assay [7], the system named is Staphylococcus aureus. Description: Antibacterial activity against Staphylococcus aureus ATCC 25923 after 24 hrs by broth microdilution method. The settings on record: ATCC 25923, 24 h. It counts as functional. (Dilution methods test growth across graded concentrations, often in twofold steps.)
For assay [8], the target named is T1, Quinolone resistance protein NorA (Staphylococcus aureus) (UniProt P0A0J7).
T1 sequence (whole entry): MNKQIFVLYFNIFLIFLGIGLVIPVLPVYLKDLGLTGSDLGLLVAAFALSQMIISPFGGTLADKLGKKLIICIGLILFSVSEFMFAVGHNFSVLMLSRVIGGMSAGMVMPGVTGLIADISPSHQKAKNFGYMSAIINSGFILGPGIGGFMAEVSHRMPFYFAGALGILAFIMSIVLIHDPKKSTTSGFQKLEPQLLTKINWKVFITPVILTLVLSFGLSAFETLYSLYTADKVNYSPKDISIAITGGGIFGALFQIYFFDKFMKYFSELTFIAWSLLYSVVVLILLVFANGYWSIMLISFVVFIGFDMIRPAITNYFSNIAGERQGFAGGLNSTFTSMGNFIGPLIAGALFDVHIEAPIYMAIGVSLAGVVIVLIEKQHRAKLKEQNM
Kind of assay: Inhibition of Staphylococcus aureus 1199B NorA assessed as potentiation of ciprofloxacin-induced antibacterial activity at 32 ug/ml after 24 hrs (reference value: 16 ug/ml).

Assay [9] deals with Staphylococcus aureus. Description: Antibacterial activity against Staphylococcus aureus 1199B after 24 hrs by broth microdilution method. It counts as functional.
Assay [10] is described as follows: Inhibition of bacterial AmpC. More on the design: species or system Bacteria.
A short description of assay [11]: Inhibition of bacterial IMP-1 using nitrocefin as substrate. More on the design: species or system Bacteria.
The test system of assay [12] is Escherichia coli. Kind of assay: Antibacterial activity against multi drug-sensitive Escherichia coli MTCC 739 after 24 hrs by serial dilution method. It counts as functional. To be noted: MTCC 739, 24 h.
The subject of assay [13] is Escherichia coli. Description: Antibacterial activity against multi drug-resistant Escherichia coli EM7 mutant after 24 hrs by serial dilution method. It counts as functional.
The subject of assay [14] is Escherichia coli. Description: Antibacterial activity against multi drug-resistant Escherichia coli EM5 mutant after 24 hrs by serial dilution method. It counts as functional.
Assay [15] relates to Escherichia coli. Description: Antibacterial activity against multi drug-resistant Escherichia coli KG1 after 24 hrs by serial dilution method. Format: functional. The settings on record: KG1, 24 h.
In assay [16] the test system is Escherichia coli. Description: Antibacterial activity against multi drug-resistant Escherichia coli KG4 after 24 hrs by serial dilution method. The settings on record: KG4, 24 h. It counts as functional.
Assay [17] relates to Pseudomonas aeruginosa. Kind of assay: Inhibition of Pseudomonas aeruginosa MexAB-Oprm assessed as potentiation of levofloxacin-induced antibacterial activity at 50 ug/ml (reference value: 16 ug/ml).
Assay [18] deals with Pseudomonas aeruginosa. Description: Inhibition of Pseudomonas aeruginosa MexAB-Oprm assessed as potentiation of ciprofloxacin-induced antibacterial activity at 50 ug/ml (reference value: 16 ug/ml).
For assay [19], the target named is T1, Quinolone resistance protein NorA (Staphylococcus aureus). Description: Inhibition of Staphylococcus aureus 1199B NorA assessed as potentiation of ciprofloxacin-induced antibacterial activity at 2 ug/ml after 24 hrs.
Assay [20] shares this target. Description: Inhibition of Staphylococcus aureus 1199B NorA assessed as potentiation of ciprofloxacin-induced antibacterial activity at 0.5 ug/ml after 24 hrs.
Assay [21] has as its system Staphylococcus aureus. Description: Antibiofilm activity against methicillin-resistant Staphylococcus aureus BAA-44 after 24 hrs by crystal violet staining based assay. The settings on record: BAA-44, 24 h. Format: functional.
The test system of assay [22] is Staphylococcus aureus. Kind of assay: Antibiofilm activity against methicillin-resistant Staphylococcus aureus BAA-44 at 100 uM after 24 hrs by crystal violet staining based assay. Format: functional. To be noted: BAA-44, 24 h.
The subject of assay [23] is Staphylococcus aureus. Kind of assay: Antibacterial activity against planktonic Staphylococcus aureus ATCC 43866 after 24 hrs by broth microdilution method. It counts as functional. To be noted: ATCC 43866, 24 h.
Assay [24] relates to Staphylococcus epidermidis. Kind of assay: Antibacterial activity against planktonic Staphylococcus epidermidis RP62A after 24 hrs by broth microdilution method. Format: functional.
Assay [25] concerns Staphylococcus aureus. Kind of assay: Inhibition of biofilm formation in Staphylococcus aureus ATCC 43866 at 25 ug/ml after 24 hrs by MTT assay. It counts as functional. To be noted: ATCC 43866, 24 h.
For assay [26], the system named is Staphylococcus aureus. Kind of assay: Antibacterial activity against planktonic Staphylococcus aureus ATCC 29213 after 24 hrs by broth microdilution method. It counts as functional. To be noted: ATCC 29213, 24 h.
Assay [27] has as its system Escherichia coli. Kind of assay: Antimicrobial activity against Escherichia coli. Format: functional.
In assay [28] the test system is Pseudomonas aeruginosa. Kind of assay: Antimicrobial activity against Pseudomonas aeruginosa. It counts as functional.
Assay [29] can be described thus: Inhibition of Escherichia coli PBP2.
Another assay relates to Enterobacter. Description: Antimicrobial activity against Enterobacter. Format: functional.

The structures appear in SMILES notation. pIC50, pKi: −log10 of the molar value. In brackets after ≈: the same amount, converted by molar mass. Where a SMILES comes first, the peptide text is derived from it. The star is where a group is joined. βNA = c1ccc2cc(N*)ccc2c1

In general, inhibition refers to the drop in the measured response relative to a control, in per cent. Low values mean little suppression, high ones strong suppression. Broadly, the pKi is the Ki on a negative log10 scale, so that one unit is a factor of ten. Read a low pKi as a large Ki. Broadly, the pIC50 is −log10 of the IC50, conventionally taken in molar units. Read a high pIC50 as a low IC50.

`O=C(c1cc(Br)ccc1O)c1[nH]c(Br)c(Br)c1Br`: the inhibition at 1.5 µg/mL (in the assay on Staphylococcus aureus [1]; in assay [2]; in assay [3]; with Staphylococcus aureus [4]; in the assay on Staphylococcus aureus [5]; in the assay with Staphylococcus aureus [6]) was greater than 60% each time.

As for `O=C(NC(C(=O)O)c1c[nH]c2ccc(Br)cc12)c1c[nH]c2ccc(Br)cc12` (stereo unspecified), the results for the MIC (in the assay on Staphylococcus aureus [7]; in [8]; in the assay on Staphylococcus aureus [9]) were greater than 32 µg/mL, 4 µg/mL and greater than 32 µg/mL, respectively.

`O=S(=O)(NCB(O)O)c1ccc(-c2nnn[nH]2)cc1C(F)(F)F` had a pKi in [10] of 10.30.

As for `O=C(c1cc(Br)ccc1O)c1[nH]c(Br)c(Cl)c1Br`, the inhibition at 1.5 µg/mL (with Staphylococcus aureus [1]; in assay [2]; in assay [3]; in the assay with Staphylococcus aureus [4]; in the assay with Staphylococcus aureus [5]; in the assay with Staphylococcus aureus [6]) was greater than 60% throughout.

In assay [11], `O=C(O)[C@H](Cc1ccc2c(c1)OCO2)[C@@H](Cc1ccc2c(c1)OCO2)C(=O)O` gave a pIC50 of 6.68.

Regarding `CCCCCCCCCCCCCC(=O)O[C@H]1CCC(=O)c2ccccc21` [4-O-MYRICITOYL-ALPHA-TETRALONE], the MIC against Escherichia coli [12], with Escherichia coli [13], against Escherichia coli [14], against Escherichia coli [15] and against Escherichia coli [16] was 250 to 1000 µg/mL (≈ 671 to 2680 µM) throughout.

Regarding `N=C(N)NCCC[C@H](NC(=O)[C@@H](N)Cc1ccccc1)C(=O)Nc1ccc2ccccc2c1` (H-Phe-Arg-βNA), the MIC in the assay with Pseudomonas aeruginosa [17] and in the assay with Pseudomonas aeruginosa [18] was 2 µg/mL throughout.

Take `O=C(c1cc(Br)ccc1O)c1[nH]c(Cl)c(Br)c1Br`: the inhibition at 1.5 µg/mL (in the assay with Staphylococcus aureus [1]; in assay [2]; in assay [3]; with Staphylococcus aureus [4]; with Staphylococcus aureus [5]; in the assay with Staphylococcus aureus [6]) was greater than 60% in each case.

Take `CC(C)(C)OC(=O)NCC(NC(=O)C(=O)c1c[nH]c2ccccc12)c1c[nH]c2ccccc12` (stereo unspecified): the MIC was 2 µg/mL in [19], greater than 32 µg/mL in the assay on Staphylococcus aureus [7], greater than 32 µg/mL with Staphylococcus aureus [9] and 4 µg/mL in [20].

Regarding `O=C(c1cc(Br)cc(Br)c1O)c1[nH]c(Br)c(Br)c1Br`, the inhibition at 1.5 µg/mL (in the assay with Staphylococcus aureus [1]; in assay [2]; in assay [3]; with Staphylococcus aureus [4]; in the assay with Staphylococcus aureus [5]; in the assay with Staphylococcus aureus [6]) was 68.5 to 100% in each case.

As to `O=C(O)[C@@H](Cc1ccc2c(c1)OCO2)[C@@H](Cc1ccc2c(c1)OCO2)C(=O)O`, the negative logarithm of the IC50 (pIC50) in assay [11] is 3.70.

On to `O=C(O[C@H]1CCC(=O)c2ccccc21)c1ccccc1` [4-O-BENZOYL-ALPHA-TETRALONE], for which the MIC in the assay on Escherichia coli [12], with Escherichia coli [13], against Escherichia coli [14], against Escherichia coli [15] and against Escherichia coli [16] was 250 to 1000 µg/mL (≈ 939 to 3760 µM) each time.

As for `CCCCOc1cc(Br)cc(/C=C(\C)Cn2cc(CCCCCc3c[nH]c(N)n3)nn2)c1F`, the pIC50 in the assay on Staphylococcus aureus [21] is 5.35. This compound had an inhibition at 100 µM with Staphylococcus aureus [22] greater than 94%.

Take `O=C(/C=C/c1ccccc1)O[C@H]1CCC(=O)c2ccccc21`: the MIC with Escherichia coli [12], against Escherichia coli [13], with Escherichia coli [14], against Escherichia coli [15] and with Escherichia coli [16] was 250 to 1000 µg/mL (≈ 855 to 3420 µM) in each case.

On to `Cc1nn(C)c([N-]C(=O)c2ccc(Cl)cc2)c1[N+]#N`, for which the MIC (in the assay with Staphylococcus aureus [23]; in assay [24]; against Staphylococcus aureus [26]) was 1.5 to 12.5 µg/mL (≈ 5.44 to 45.3 µM) each time. In addition, the inhibition at 25 µg/mL in the assay on Staphylococcus aureus [25] was 69 to 96%.

Turning to `O=C(NOC1CCNC1)[C@@H]1CC[C@@H]2CN1C(=O)N2OS(=O)(=O)[O-].[Na+]` (stereo partly specified), the MIC with Escherichia coli [27], in the assay on Pseudomonas aeruginosa [28] and with Enterobacter was no more than 2 µg/mL each time. In assay [29], this compound gave a negative logarithm of the IC50 (pIC50) of 4.80.
